According to US20260008775A1, “AZOLE MODULATORS OF CHOLESTEROL BIOSYNTHESIS AND THEIR USE FOR PROMOTING REMYELINATION” (GENENTECH, INC., priority 2022, published 2026):

Legend:
[1] = system: zymostenol accumulation (EBP) in EpiSC-derived OPCs; experiment: GC/MS-based sterol profiling, zymostenol accumulation in EpiSC-derived OPCs; type: cell-based, mouse; conditions: Mus musculus, 24 h, EpiSC-derived OPCs, 24 hr, 8 doses from 0.15 nM to 333 nM; read-out: Mouse Zymostenol GCMS EC50
Method: To assess effects of treatments on OPCs, all treatments were assayed in two or more independent platings of epiblast stem cell-derived OPCs (EpiSC). EpiSC-derived OPCs were obtained using in vitro differentiation protocols and culture conditions described previously (Najm et al, 2011, Nature Methods). OPCs were expanded and frozen down in aliquots. OPCs were thawed into growth conditions for at least one passage before use in further assays.
Sterols were monitored using a modified Folch wash protocol (Hubler et al, 2018, Nature). EpiSC-derived OPCs were plated at 100,000 cells per well in PO- and laminin-coated 96-well plates in N2B27 media without growth factors. After 24 hours, cells were rinsed with saline and plates were frozen. Cholesterol-d7 standard was then added to each well before drying under nitrogen stream and derivatization with 55 μl of bis(trimethylsilyl) trifluoroacetamide. After derivatization, 2 μl were analyzed by gas chromatography/mass spectrometry using an Agilent 5973 Network Mass Selective Detector equipped with a 6890 gas chromatograph system and a HP-5MS capillary column (30 m×0.25 mm×[…]). Samples were analyzed in full scan mode using electron impact ionization; ion fragment peaks were integrated to calculate sterol abundance, and quantitation was relative to cholesterol-d7. The following ion fragments were used to quantitate each metabolite: cholesterol-d7 (465), FF-Mas (482), cholesterol (368), zymostenol (458), zymosterol (456), Desmosterol (456, 343), 7-dehydrocholesterol (456, 325), lanosterol (393), lathosterol (458), 14-dehydrozymostenol (456, 351). […] All standards were obtained from Avanti Polar Lipids unless otherwise indicated. Calibration curves were generated by injecting varying concentrations of sterol standards and maintaining a fixed amount of cholesterol-D7. For normalized zymostenol accumulation results, the total amount of zymostenol measured after drug treatment was divided by the total amount of zymostenol accumulated after 24 hr treatment with 100 nM positive control reference.

[2] = biological target: human emopamil binding protein and human 7-dehydrocholesterol reductase (hEBP-DHCR7) (Homo sapiens (Human), UniProt Q15125); experiment: hEBP-DHCR7 radioligand binding assay (filter binding, membranes of co-expressing HEK293 cells); conditions: competition with [3H] radioligand, 8 doses 0.06 to 5000 nM, Ki calculated from IC50
Sequence of human emopamil binding protein and human 7-dehydrocholesterol reductase (hEBP-DHCR7) (Q15125 whole entry): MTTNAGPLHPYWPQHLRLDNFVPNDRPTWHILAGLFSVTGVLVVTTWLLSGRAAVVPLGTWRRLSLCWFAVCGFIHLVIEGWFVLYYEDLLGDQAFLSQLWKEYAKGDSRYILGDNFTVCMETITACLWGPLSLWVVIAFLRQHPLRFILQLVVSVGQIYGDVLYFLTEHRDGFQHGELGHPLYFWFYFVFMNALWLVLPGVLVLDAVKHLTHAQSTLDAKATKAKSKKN
Method: Membrane Preparation: human emopamil binding protein and human 7-dehydrocholesterol reductase co-expressing cells were generated by transient transfecting host human embryonic kidney (HEK) 293 cells with 2 DNA constructs containing each protein's coding sequence. Cells were suspension cultured at 37° C. with 5% CO2 in […] 293 Expression Medium (Thermofisher). Whole cell membrane was prepared by harvesting the cell pellet, adding cold membrane buffer (50 mM Tris, pH7.5, 1× Roche COMPLETE EDTA-free protease inhibitor cocktail) 10 times volume of the cell pellets weight, lysing cell pellet on ice by using Dounce homogenizer, spinning at 200 g 4° C. for 15 min, collecting supernatant and spinning again at 25000 g 4° C. for 50 min, transferring pellet to Dounce homogenizer, re-suspending pellet by homogenizing in membrane buffer on ice to reach ˜25 mg/mL, then keeping whole cell membrane aliquots at −80° C.
Compounds were prepared in a 96-well U bottom plate (Corning Cat #7007) using an Echo550 machine and 10 mM compound DMSO stock solution, followed by an 8-dose 5-fold serial dilutions protocol with final testing compound concentration ranging from 0.06 to 5000 nM, with DMSO back fill to 100 nL/well and n=2. […] The UniFilter-96 GF/B plates (PerkinElmer Cat #6005177) were pre-treated by adding 50 μl/well of 0.3% (v/v) Polyethylenimine (PEI) (branched, Sigma Cat #408727) to UniFilter-96 GF/B plates. The plates were sealed and incubated at 4° C. for 3 hrs. Then, the plates were washed with ice-cold assay buffer 3 times. The radioligand binding assay was prepared by adding assay buffer diluted hEBP-DHCR7 membrane at 66.7 µg/ml×150 μl/well into the 96-well compound plate to reach 10 μg membrane per well. Then, the assay buffer diluted [3H]—(S)-6-(2-Methyl-3-(6-(trifluoromethyl)pyridin-3-yl)propyl)-2-thia-6-azaspiro[3.4]octane 2,2-dioxide (Moravek, Cat #MT-1003106) was added at 25 nM×50 μl/well. Following this, the plate was centrifuged at 1000 rpm for 30 secs. The plate was then sealed and agitated at 600 rpm at 22° C. for 5 min, and then incubated at 22° C. for 3 hrs. The incubation was stopped by transferring the binding solution to the pre-treated UniFilter-96 GF/B plate, vacuum filtrated, and then washed four times with ice-cold assay buffer. Following this, the plates were dried at 37° C. for 45 min. The plates were then sealed at the bottom. 40 µl/well of scintillation cocktail was added to the plates. A MicroBeta2 microplate counter was then used to read the plate and analyze the data. For reference and test compounds, the results are expressed as % Inhibition, using the normalization equation: N=100−100×(U−C2)/(C1−C2), where U is the unknown value, C1 is the average of high controls, and C2 is the average value of low controls.

Compound: CC(C)n1nc(-c2cc(C(F)(F)F)ccn2)nc1[C@@H]1CC[C@@H](N2CCOCC2)C1 (single isomer, unassigned) [27*]
- EC50 [1]: 0.141 µM

Compound: CC(C)n1nc(-c2cncc(C(F)(F)F)c2)cc1[C@H]1[C@@H]2CC(N3CCOC[C@@H]3C)C[C@@H]21 (single isomer, unassigned) [43*]
- Ki [2]: 0.065 µM
- EC50 [1]: 0.243 µM

Compound: CC(C)n1nc(-c2cncc(C(F)(F)F)c2)cc1[C@H]1[C@@H]2CC(N3CCOC[C@H]3C)C[C@@H]21 (single isomer, unassigned) [44*]
- Ki [2]: 0.065 µM
- EC50 [1]: 0.062 µM

Compound: CC(C)n1nc(-c2cncc(C(F)(F)F)c2)cc1[C@@H]1CC[C@@H](N2CCOCC2)C1 (single isomer, unassigned) [59*]
- Ki [2]: 0.0734 µM
- EC50 [1]: 0.0192 µM

Compound: CC(C)n1nc(-c2cncc(C(F)(F)F)c2)cc1[C@H]1CC[C@@H](N2CCCOCC2)C1 (single isomer, unassigned) [64*]
- Ki [2]: 0.0156 µM
- EC50 [1]: 0.00275 µM

Compound: CC(C)n1nc(-c2cccc(C(F)(F)F)n2)nc1[C@H]1CC[C@H](N2CCOC[C@@H]2C)CC1 (single isomer, unassigned) [78*]
- EC50 [1]: > 0.333 µM

Compound: CC(C)n1nc(-c2cccc(C(F)(F)F)n2)nc1[C@H]1CC[C@@H](N2CCOC[C@@H]2C)CC1 (single isomer, unassigned) [79*]
- EC50 [1]: 0.0231 µM

Compound: CC(C)n1nc(-c2cccc(C(F)(F)F)n2)nc1[C@H]1CC[C@H](N2CCOC[C@H]2C)CC1 (single isomer, unassigned) [80*]
- Ki [2]: 0.528 µM
- EC50 [1]: 0.112 µM

Compound: CC(C)n1nc(-c2cccc(C(F)(F)F)n2)nc1[C@H]1CC[C@@H](N2CCOC[C@H]2C)CC1 (single isomer, unassigned) [81*]
- EC50 [1]: 0.0273 µM

Compound: CC(C)n1nc(-c2ccc(C(F)(F)F)nc2)cc1[C@@H]1CC[C@@H](N2CCN(CCO)CC2)C1 (single isomer, unassigned) [86*]
- Ki [2]: 0.0312 µM
- EC50 [1]: 0.0287 µM

Compound: CC(C)n1nc(-c2ccc(C(F)(F)F)nc2)cc1[C@H]1CC[C@H](N2CCN(CCO)CC2)C1 (single isomer, unassigned) [88*]
- Ki [2]: 0.0882 µM
- EC50 [1]: 0.627 µM

Compound: CC(C)n1nc(-c2ccc(C(F)(F)F)nc2)cc1[C@H]1CC[C@@H](N2CCN(CCO)CC2)C1 (single isomer, unassigned) [89*]
- Ki [2]: 0.0424 µM
- EC50 [1]: 0.0219 µM

Compound: COCCN1CCN([C@@H]2CC[C@@H](c3cc(-c4ccc(C(F)(F)F)nc4)nn3C(C)C)C2)CC1 (single isomer, unassigned) [90*]
- Ki [2]: 0.011 µM
- EC50 [1]: 0.0337 µM

Compound: COCCN1CCN([C@H]2CC[C@H](c3cc(-c4ccc(C(F)(F)F)nc4)nn3C(C)C)C2)CC1 (single isomer, unassigned) [92*]
- Ki [2]: 0.0776 µM
- EC50 [1]: 0.252 µM

Compound: CC(C)n1nc(-c2cncc(C(F)(F)F)c2)nc1[C@@H]1CC[C@@H](N2CCOCC2)C1 (single isomer, unassigned) [Compound 115*]
- Ki [2]: 0.035 µM
- EC50 [1]: 0.0972 µM

Compound: CC(C)n1nc(-c2cncc(C(F)(F)F)c2)nc1[C@H]1CC[C@H](N2CCOCC2)C1 (single isomer, unassigned) [Compound 116*]
- Ki [2]: 0.169 µM
- EC50 [1]: 0.049 µM

Compound: CC(C)n1nc(-c2cncc(C(F)(F)F)c2)nc1[C@@H]1CC[C@H](N2CCOCC2)C1 (single isomer, unassigned) [Compound 117*]
- Ki [2]: 0.0346 µM
- EC50 [1]: 0.0135 µM

Compound: CC(C)n1nc(-c2cnc(C(F)(F)F)nc2)cc1[C@H]1CC[C@H](N2CCO[C@@H](CF)C2)C1 (single isomer, unassigned) [Compound 130*]
- Ki [2]: 0.392 µM
- EC50 [1]: 0.619 µM

Compound: CC(C)n1nc(-c2cnc(C(F)(F)F)nc2)cc1[C@H]1CC[C@@H](N2CCO[C@@H](CF)C2)C1 (single isomer, unassigned) [Compound 131*]
- Ki [2]: 0.106 µM
- EC50 [1]: 0.168 µM

Compound: CC(C)n1nc(-c2cnc(C(F)(F)F)nc2)cc1[C@H]1CC[C@H](N2CCO[C@H](CF)C2)C1 (single isomer, unassigned) [Compound 132*]
- Ki [2]: 0.088 µM
- EC50 [1]: 0.352 µM

Compound: CC(C)n1nc(-c2cnc(F)c(C(F)(F)F)c2)nc1[C@@H]1CC[C@H](N2CCOCC2)C1 (single isomer, unassigned) [Compound 157*]
- Ki [2]: 0.051 µM
- EC50 [1]: 0.0592 µM

Compound: CC(C)n1nc(-c2cnc(F)c(C(F)(F)F)c2)nc1[C@H]1CC[C@@H](N2CCOCC2)C1 (single isomer, unassigned) [Compound 158*]
- Ki [2]: 0.0338 µM
- EC50 [1]: 0.00538 µM

Compound: CC(C)n1nc(-c2cnc(F)c(C(F)(F)F)c2)nc1[C@H]1CC[C@H](N2CCOCC2)C1 (single isomer, unassigned) [Compound 159*]
- Ki [2]: 0.0122 µM
- EC50 [1]: 0.00425 µM

Compound: CC(C)n1nc([C@H]2CC[C@H](C(F)(F)F)CC2)nc1[C@H]1[C@@H]2C[C@H](N3CCOC[C@H]3C)C[C@@H]21 (single isomer, unassigned) [Compound 164*]
- Ki [2]: 1.64 µM
- EC50 [1]: 0.143 µM

Compound: CC(C)n1nc(-c2ccc(C(F)(F)F)nc2)nc1[C@H]1CC[C@H](N2CCO[C@H](CF)C2)C1 (single isomer, unassigned) [Compound 168]
- Ki [2]: 0.388 µM
- EC50 [1]: 0.229 µM

Compound: CC(C)n1nc(-c2ccc(C(F)(F)F)nc2)nc1[C@@H]1CC[C@@H](N2CCCOCC2)C1 [Compound 3, 4-((1R,3R)-3-(1-isopropyl-3-(6-(trifluoromethyl)pyridin-3-yl)-1H-1,2,4-triazol-5-yl)cyclopentyl)-1,4-oxazepane]
- Ki [2]: 0.0324 µM
- EC50 [1]: 0.0395 µM

Compound: CC(C)n1nc(-c2cccc(OC(F)F)c2)nc1[C@H]1[C@@H]2C[C@@H](N3CCCOCC3)C[C@@H]21 [Compound 74, 4-((1R,3s,5S,6r)-6-(3-(3-(Difluoromethoxy)phenyl)-1-isopropyl-1H-1,2,4-triazol-5-yl)bicyclo[3.1.0]hexan-3-yl)-1,4-oxazepane]
- Ki [2]: 0.037 µM
- EC50 [1]: 0.168 µM

Compound: CC(C)n1nc(-c2cccc(OC(F)F)c2)nc1[C@H]1[C@@H]2C[C@H](N3CCCOCC3)C[C@@H]21 [Compound 75, 4-((1R,3r,5S,6r)-6-(3-(3-(Difluoromethoxy)phenyl)-1-isopropyl-1H-1,2,4-triazol-5-yl)bicyclo[3.1.0]hexan-3-yl)-1,4-oxazepane]
- Ki [2]: 0.012 µM
- EC50 [1]: 0.00283 µM

Compound: CC(C)n1nc(-c2cccc(OC(F)F)c2)nc1[C@H]1[C@@H]2C[C@@H](N3CCOC[C@H]3C)C[C@@H]21 [Compound 77, (R)-4-((1R,3s,5S,6R)-6-(3-(3-(Difluoromethoxy)phenyl)-1-isopropyl-1H-1,2,4-triazol-5-yl)bicyclo[3.1.0]hexan-3-yl)-3-methylmorpholine]
- Ki [2]: 0.129 µM
- EC50 [1]: 0.191 µM

Compound: COCCN1CCN([C@@H]2CC[C@@H](c3nc(-c4ccc(C(F)(F)F)nc4)nn3C(C)C)C2)CC1 [Compound 82, 1-((1R,3R)-3-(1-Isopropyl-3-(6-(trifluoromethyl)pyridin-3-yl)-1H-1,2,4-triazol-5-yl)cyclopentyl)-4-(2-methoxyethyl)piperazine]
- Ki [2]: 0.087 µM
- EC50 [1]: 0.28 µM
